{"source": "ChEMBL document CHEMBL5055661", "about": "“Cell-Based Drug Discovery: Identification and Optimization of Small Molecules that Reduce c-MYC Protein Levels in Cells” (J Med Chem, 2021)", "key": {"[1]": {"experiment": "Reduction in cMyc expression in human COLO 320HSR cells incubated for 24 hrs by HTRF assay", "type": "functional, cell-based"}, "[2]": {"experiment": "Permeability of the compound across artificial membrane by AMP assay", "type": "ADME", "conditions": "PAMPA; read-out: permeability"}, "[3]": {"experiment": "Clearance in CD1 mouse at 0.49 mg/kg, iv by LC-MS/MS analysis", "type": "ADME, organism-based", "conditions": "in vivo"}, "[4]": {"experiment": "Half life in CD1 mouse at 0.49 mg/kg, iv by LC-MS/MS analysis", "type": "ADME, organism-based", "conditions": "in vivo"}, "[5]": {"experiment": "Volume of distribution at steady state in CD1 mouse at 0.49 mg/kg, iv by LC-MS/MS analysis", "type": "ADME, organism-based", "conditions": "in vivo, read-out: Vdss"}, "[6]": {"experiment": "AUC (0 to inf) in CD1 mouse at 5.1 mg/kg, po by LC-MS/MS analysis", "type": "ADME, organism-based", "design": "time infinity, dose 5.1 mg/kg, route po", "conditions": "in vivo"}, "[7]": {"experiment": "Oral bioavailability in CD1 mouse at 5.1 mg/kg by LC-MS/MS analysis", "type": "ADME, organism-based", "conditions": "in vivo"}, "[8]": {"experiment": "Plasma protein binding in CD1 mouse at 5.1 mg/kg, po by LC-MS/MS analysis", "type": "ADME, organism-based", "conditions": "read-out: PPB"}, "[9]": {"experiment": "Clearance in Han Wistar rat at 1 mg/kg, iv by LC-MS/MS analysis", "type": "ADME, organism-based", "conditions": "in vivo"}, "[10]": {"experiment": "Half life in Han Wistar rat at 1 mg/kg, iv by LC-MS/MS analysis", "type": "ADME, organism-based", "conditions": "in vivo"}, "[11]": {"experiment": "Volume of distribution at steady state in Han Wistar rat at 1 mg/kg, iv by LC-MS/MS analysis", "type": "ADME, organism-based", "conditions": "in vivo, read-out: Vdss"}, "[12]": {"experiment": "AUC (0 to inf) in Han Wistar rat at 2.1 mg/kg, po by LC-MS/MS analysis", "type": "ADME, organism-based", "design": "time infinity, dose 2.1 mg/kg, route po", "conditions": "in vivo"}, "[13]": {"experiment": "Oral bioavailability in Han Wistar rat at 2.1 mg/kg by LC-MS/MS analysis", "type": "ADME, organism-based", "conditions": "in vivo"}, "[14]": {"experiment": "Plasma protein binding in Han Wistar rat at 2.1 mg/kg, po by LC-MS/MS analysis", "type": "ADME, organism-based", "conditions": "read-out: PPB"}, "DOHH-2 [15]": {"tested_on": "DOHH-2", "experiment": "Decrease in c-MYC protein level in human DOHH-2 cells incubated for 6 hrs by Western blot analysis", "type": "functional, cell-based"}, "Burkitts lymphoma cell": {"tested_on": "Burkitts lymphoma cell", "experiment": "Growth inhibition of MYC-translocated human Burkitts lymphoma cells measured after 6 days by CellTiterGlo-assay", "type": "functional", "conditions": "time 6.0 day"}, "DOHH-2 [16]": {"tested_on": "DOHH-2", "experiment": "Reduction in MYC mRNA level in po dosed mouse xenografted with human DOHH-2 cells by qRT-PCR analysis", "type": "functional, organism-based", "conditions": "dose 15-100 mg/kg"}, "DOHH-2 [17]": {"tested_on": "DOHH-2", "experiment": "Anticancer activity against human DOHH-2 cells assessed as tumor growth inhibition at 30 mg/kg, po qd measured after 21 days", "type": "functional", "conditions": "DOHH-2, 504 h, time 21 day, read-out: TGI"}, "DOHH-2 [18]": {"tested_on": "DOHH-2", "experiment": "Anticancer activity against human DOHH-2 cells assessed as tumor growth inhibition at 45 mg/kg, po qd measured after 21 days", "type": "functional", "conditions": "DOHH-2, 504 h, time 21 day, read-out: TGI"}, "DOHH-2 [19]": {"tested_on": "DOHH-2", "experiment": "Anticancer activity against human DOHH-2 cells assessed as tumor growth inhibition at 30 mg/kg, po qd measured after 28 days", "type": "functional", "conditions": "DOHH-2, 672 h, time 28 day, read-out: TGI"}, "DOHH-2 [20]": {"tested_on": "DOHH-2", "experiment": "Anticancer activity against human DOHH-2 cells assessed as reduction in MYC mRNA expression in tumor at 30 mg/kg, po qd measured after 28 days by qRT-PCR analysis", "type": "functional, organism-based", "conditions": "time 28.0 day"}, "Mus musculus": {"tested_on": "Mus musculus", "experiment": "Toxicity in mouse assessed as decrease in body weight at 30 mg/kg, po qd measured after 28 days", "type": "organism-based", "conditions": "in vivo, 672 h, time 28 day"}, "[21]": {"experiment": "Clearance in CD1 mouse at 0.5 mg/kg, iv by LC-MS/MS analysis", "type": "ADME, organism-based", "conditions": "in vivo"}, "[22]": {"experiment": "Half life in CD1 mouse at 0.5 mg/kg, iv by LC-MS/MS analysis", "type": "ADME, organism-based", "conditions": "in vivo"}, "[23]": {"experiment": "Volume of distribution at steady state in CD1 mouse at 0.5 mg/kg, iv by LC-MS/MS analysis", "type": "ADME, organism-based", "conditions": "in vivo, read-out: Vdss"}}, "note": "The source made the active and inactive calls. No cut-off for these calls is given here.", "data": [{"smiles": "CCNC(=O)c1cc(OC)c2c(c1)nc(-c1ccc(N3[C@@H](C)CC[C@@H]3C)nc1)n2C[C@@H]1CN(C)CCO1", "values": [{"measurement": "EC50", "setting": "[1]", "value": 0.0794, "unit": "µM"}, {"measurement": "Papp", "setting": "[2]", "value": 20.5, "unit": "×10⁻⁶ cm/s"}, {"measurement": "clearance", "setting": "[3]", "value": 25, "unit": "mL/min/kg"}, {"measurement": "half-life", "setting": "[4]", "value": 0.75, "unit": "h"}, {"measurement": "Vd", "setting": "[5]", "value": 0.73, "unit": "L/kg"}, {"measurement": "AUC(0-inf)", "setting": "[6]", "value": 1720, "unit": "ng·h/mL"}, {"measurement": "bioavailability", "setting": "[7]", "value": 35, "unit": "%"}, {"measurement": "fraction unbound", "setting": "[8]", "value": 0.01}, {"measurement": "clearance", "setting": "[9]", "value": 22, "unit": "mL/min/kg"}, {"measurement": "half-life", "setting": "[10]", "value": 3.6, "unit": "h"}, {"measurement": "Vd", "setting": "[11]", "value": 2.6, "unit": "L/kg"}, {"measurement": "AUC(0-inf)", "setting": "[12]", "value": 669, "unit": "ng·h/mL"}, {"measurement": "bioavailability", "setting": "[13]", "value": 40, "unit": "%"}, {"measurement": "fraction unbound", "setting": "[14]", "value": 0.09}, {"measurement": "Activity", "setting": "DOHH-2 [15]", "value": "Active"}, {"measurement": "growth inhibition (GI)", "setting": "Burkitts lymphoma cell", "value": "Active"}, {"measurement": "Activity", "setting": "DOHH-2 [16]", "value": "Active"}, {"measurement": "inhibition in vivo at 30 mg/kg", "setting": "DOHH-2 [17]", "value": 58, "unit": "%"}, {"measurement": "inhibition in vivo at 45 mg/kg", "setting": "DOHH-2 [18]", "value": 89, "unit": "%"}, {"measurement": "inhibition in vivo at 30 mg/kg", "setting": "DOHH-2 [19]", "value": 82, "unit": "%"}, {"measurement": "Activity", "setting": "DOHH-2 [20]", "value": "Active"}, {"measurement": "Activity", "setting": "Mus musculus", "value": "Non-Toxic"}, {"measurement": "clearance", "setting": "[21]", "value": 26, "unit": "mL/min/kg"}, {"measurement": "half-life", "setting": "[22]", "value": 1.9, "unit": "h"}, {"measurement": "Vd", "setting": "[23]", "value": 3.4, "unit": "L/kg"}]}]}
